From patent US11498899B2, “Nitrone herbicides” (FMC Corporation, priority 2016, dated 2022)

Columns and labels:
kochia (Kochia scoparia) [1] = experiment: Test A postemergence, visual injury rating 0-100; format: in vivo; settings: 0 to 100 scale
corn (Zea mays) = experiment: Test A postemergence, visual injury rating 0-100; format: in vivo; settings: 0 to 100 scale
[2] = system: galium (catchweed bedstraw, Galium aparine); experiment: Test A postemergence, visual injury rating 0-100; format: in vivo; settings: 0 to 100 scale
[3] = system: ragweed (common ragweed, Ambrosia elatior); experiment: Test A postemergence, visual injury rating 0-100; format: in vivo; settings: 0 to 100 scale
[4] = system: foxtail, giant (giant foxtail, Setaria faberii); experiment: Test A postemergence, visual injury rating 0-100; format: in vivo; settings: 0 to 100 scale
[5] = system: wheat (Triticum aestivum); experiment: Test A postemergence, visual injury rating 0-100; format: in vivo; settings: 0 to 100 scale
[6] = system: ryegrass, Italian (Italian ryegrass, Lolium multiflorum); experiment: Test A postemergence, visual injury rating 0-100; format: in vivo; settings: 0 to 100 scale
[7] = system: barnyardgrass (Echinochloa crus-galli); experiment: Test A postemergence, visual injury rating 0-100; format: in vivo; settings: 0 to 100 scale
[8] = system: blackgrass (Alopecurus myosuroides); experiment: Test A postemergence, visual injury rating 0-100; format: in vivo; settings: 0 to 100 scale
[9] = system: pigweed (Amaranthus retroflexus); experiment: Test A postemergence, visual injury rating 0-100; format: in vivo; settings: 0 to 100 scale
[10] = system: barnyardgrass (Echinochloa crus-galli); experiment: Test A preemergence, visual injury rating 0-100 (0 no effect, 100 complete control); format: in vivo
[11] = system: barnyardgrass (Echinochloa crus-galli); experiment: Test B flooded paddy test, visual rating 0-100; settings: Flood, 250 g ai/ha, applied to paddy water, rated after 13 to 15 days
rice (Oryza sativa) = experiment: Test B flooded paddy test, visual rating 0-100 (0 no effect, 100 complete control); settings: Flood, 250 g ai/ha, applied to paddy water, rated after 13 to 15 days
kochia (Kochia scoparia) [12] = experiment: Test A preemergence, visual injury rating 0-100; format: in vivo
[13] = system: ragweed (common ragweed, Ambrosia elatior); experiment: Test A preemergence, visual injury rating 0-100; format: in vivo
[14] = system: foxtail, giant (giant foxtail, Setaria faberii); experiment: Test A preemergence, visual injury rating 0-100; format: in vivo
[15] = system: ryegrass, Italian (Italian ryegrass, Lolium multiflorum); experiment: Test A preemergence, visual injury rating 0-100; format: in vivo
[16] = system: pigweed (Amaranthus retroflexus); experiment: Test A preemergence, visual injury rating 0-100; format: in vivo
[17] = system: ducksalad (Heteranthera limosa); experiment: Test B flooded paddy test, visual rating 0-100; settings: Flood, 250 g ai/ha, applied to paddy water, rated after 13 to 15 days
[18] = 31 g ai/ha, 0 to 100 scale (0 no effect, 100 complete control), approx. 10 days

SMILES | Kochia plant response rating (kochia (Kochia scoparia) [1]; 125 g ai/ha) | Kochia plant response rating (kochia (Kochia scoparia) [1]; 500 g ai/ha) | Corn plant response rating (corn (Zea mays); 125 g ai/ha) | Galium plant response rating ([2]; 125 g ai/ha) | Ragweed plant response rating ([3]; 125 g ai/ha) | Foxtail, Giant plant response rating ([4]; 125 g ai/ha) | Wheat plant response rating ([5]; 125 g ai/ha) | Ryegrass, Italian plant response rating ([6]; 125 g ai/ha) | Barnyardgrass plant response rating ([7]; 125 g ai/ha) | Blackgrass plant response rating ([8]; 125 g ai/ha) | Pigweed plant response rating ([9]; 125 g ai/ha) | Barnyardgrass plant response rating (0 to 100 scale) ([10]; 125 g ai/ha) | Barnyardgrass plant response rating (0 to 100 scale) [11] | Rice plant response rating (0 to 100 scale) (rice (Oryza sativa)) | Kochia plant response rating (0 to 100 scale) (kochia (Kochia scoparia) [12]; 125 g ai/ha) | Ragweed plant response rating (0 to 100 scale) ([13]; 125 g ai/ha) | Foxtail, Giant plant response rating (0 to 100 scale) ([14]; 125 g ai/ha) | Ryegrass, Italian plant response rating (0 to 100 scale) ([15]; 125 g ai/ha) | Pigweed plant response rating (0 to 100 scale) ([16]; 125 g ai/ha) | Ducksalad plant response rating (0 to 100 scale) [17] | also measured
CC1=[N+]([O-])[C@H](C(=O)Nc2cccc(F)c2F)[C@@H](c2ccc(C)cc2)C1 (relative stereo) [Compound 6, rel-(2S,3R)—N-(2,3-Difluorophenyl)-3,4-dihydro-5-methyl-3-(4-methylphenyl)-2H-pyrrole-2-carboxamide 1-oxide] | 30 | 70 | 30 | 50 | 0 | 90 | 60 | 50 | 90 | 50 | 40 | 100 | 85 | 0 | 70 | 40 | 100 | 80 | 80 | 100 | Corn plant response rating (corn (Zea mays); 500 g ai/ha): 80; Galium plant response rating ([2]; 500 g ai/ha): 70; Ragweed plant response rating ([3]; 500 g ai/ha): 60; Foxtail, Giant plant response rating ([4]; 500 g ai/ha): 90; Wheat plant response rating ([5]; 500 g ai/ha): 80; Ryegrass, Italian plant response rating ([6]; 500 g ai/ha): 60; Barnyardgrass plant response rating ([7]; 500 g ai/ha): 90; Blackgrass plant response rating ([8]; 500 g ai/ha): 80; Pigweed plant response rating ([9]; 500 g ai/ha): 50; Barnyardgrass plant response rating ([10]; 500 g ai/ha, 0 to 100 scale): 100; Kochia plant response rating (kochia (Kochia scoparia) [12]; 500 g ai/ha, 0 to 100 scale): 70; Ragweed plant response rating ([13]; 500 g ai/ha, 0 to 100 scale): 100; Foxtail, Giant plant response rating ([14]; 500 g ai/ha, 0 to 100 scale): 100; Ryegrass, Italian plant response rating ([15]; 500 g ai/ha, 0 to 100 scale): 90; Pigweed plant response rating ([16]; 500 g ai/ha, 0 to 100 scale): 90
CC1=[N+]([O-])[C@H](C(=O)Nc2cccc(F)c2F)[C@@H](c2ccc(C(F)(F)F)c(F)c2)C1 (relative stereo) [Compound 61, rel-(2S,3R)—N-(2,3-Difluorophenyl)-3-[3-fluoro-4-(trifluoromethyl)phenyl]-3,4-dihydro-5-methyl-2H-pyrrole-2-carboxamide 1-oxide] | 0 | 30 | 50 | 50 | 0 | 70 | 70 | 80 | 70 | 50 | 30 | 90 | 65 | 0 | 30 | 50 | 90 | 80 | 80 | 74 | Corn plant response rating (corn (Zea mays); 500 g ai/ha): 90; Galium plant response rating ([2]; 500 g ai/ha): 60; Ragweed plant response rating ([3]; 500 g ai/ha): 50; Foxtail, Giant plant response rating ([4]; 500 g ai/ha): 90; Wheat plant response rating ([5]; 500 g ai/ha): 90; Ryegrass, Italian plant response rating ([6]; 500 g ai/ha): 80; Barnyardgrass plant response rating ([7]; 500 g ai/ha): 90; Blackgrass plant response rating ([8]; 500 g ai/ha): 90; Pigweed plant response rating ([9]; 500 g ai/ha): 50; Barnyardgrass plant response rating (0 to 100 scale) ([10]; 500 g ai/ha): 90; Kochia plant response rating (0 to 100 scale) (kochia (Kochia scoparia) [12]; 500 g ai/ha): 80; Ragweed plant response rating (0 to 100 scale) ([13]; 500 g ai/ha): 80; Foxtail, Giant plant response rating (0 to 100 scale) ([14]; 500 g ai/ha): 90; Ryegrass, Italian plant response rating (0 to 100 scale) ([15]; 500 g ai/ha): 90; Pigweed plant response rating (0 to 100 scale) ([16]; 500 g ai/ha): 90
CC1=[N+]([O-])[C@H](C(=O)Nc2cccc(F)c2F)[C@@H](c2ccc(C(F)F)cc2)C1 (relative stereo) [Compound 93, rel-(2S,3R)-3-(4-Difluoromethyl)phenyl)-N-(2,3-difluorophenyl) 3,4-dihydro-5-methyl-2H-pyrrole-2-carboxamide 1-oxide] | 0 | 80 | 60 | 60 | 0 | 80 | 60 | 60 | 70 | 60 | 50 | 90 | 70 | 15 | 30 | 70 | 90 | 70 | 80 | 100 | Corn plant response rating (corn (Zea mays); 500 g ai/ha): 90; Galium plant response rating ([2]; 500 g ai/ha): 70; Ragweed plant response rating ([3]; 500 g ai/ha): 70; Foxtail, Giant plant response rating ([4]; 500 g ai/ha): 90; Wheat plant response rating ([5]; 500 g ai/ha): 80; Ryegrass, Italian plant response rating ([6]; 500 g ai/ha): 70; Barnyardgrass plant response rating ([7]; 500 g ai/ha): 90; Blackgrass plant response rating ([8]; 500 g ai/ha): 70; Pigweed plant response rating ([9]; 500 g ai/ha): 80; Barnyardgrass plant response rating (0 to 100 scale) ([10]; 500 g ai/ha): 90; Kochia plant response rating (0 to 100 scale) (kochia (Kochia scoparia) [12]; 500 g ai/ha): 80; Ragweed plant response rating (0 to 100 scale) ([13]; 500 g ai/ha): 90; Foxtail, Giant plant response rating (0 to 100 scale) ([14]; 500 g ai/ha): 90; Ryegrass, Italian plant response rating (0 to 100 scale) ([15]; 500 g ai/ha): 90; Pigweed plant response rating (0 to 100 scale) ([16]; 500 g ai/ha): 90
CC1=[N+]([O-])[C@H](C(=O)Nc2cccc(F)c2F)[C@@H](c2ccc(F)c(OC(F)(F)C(F)F)c2)C1 [Compound 54, (2S,3R)—N-(2,3-Difluorophenyl)-3-[4-fluoro-3-(1,1,2,2-tetrafluoroethyoxy)phenyl]-3,4-dihydro-5-methyl-2H-pyrrole-2-carboxamide 1-oxide] | 50 |  | 70 | 70 | 30 | 70 | 50 | 70 | 70 | 70 | 60 | 90 | 35 | 0 | 50 | 50 | 90 | 80 | 70 | 80 | Kochia plant response rating (kochia (Kochia scoparia) [1]; 31 g ai/ha): 0; Corn plant response rating (corn (Zea mays); 31 g ai/ha): 40; Galium plant response rating ([2]; 31 g ai/ha): 40; Ragweed plant response rating ([3]; 31 g ai/ha): 0; Foxtail, Giant plant response rating ([4]; 31 g ai/ha): 30; Wheat plant response rating ([5]; 31 g ai/ha): 0; Ryegrass, Italian plant response rating ([6]; 31 g ai/ha): 0; Barnyardgrass plant response rating ([7]; 31 g ai/ha): 30; Blackgrass plant response rating ([8]; 31 g ai/ha): 60; Pigweed plant response rating ([9]; 31 g ai/ha): 20; Barnyardgrass plant response rating [10, 18]: 80; Kochia plant response rating (kochia (Kochia scoparia) [12]; [18]): 0; Ragweed plant response rating [13, 18]: 0; Foxtail, Giant plant response rating [14, 18]: 90; Ryegrass, Italian plant response rating [15, 18]: 60; Pigweed plant response rating [16, 18]: 0
CC1=[N+]([O-])[C@@H](C(=O)Nc2cccc(F)c2F)[C@H](c2cccc(OC(C)C)c2)C1 [Compound 55] | 0 |  | 0 | 30 | 0 | 80 | 30 | 70 | 60 | 80 | 0 | 90 | 70 | 0 | 0 | 0 | 90 | 80 | 0 | 100 | Kochia plant response rating (kochia (Kochia scoparia) [1]; 31 g ai/ha): 0; Corn plant response rating (corn (Zea mays); 31 g ai/ha): 0; Galium plant response rating ([2]; 31 g ai/ha): 0; Ragweed plant response rating ([3]; 31 g ai/ha): 0; Foxtail, Giant plant response rating ([4]; 31 g ai/ha): 10; Wheat plant response rating ([5]; 31 g ai/ha): 0; Ryegrass, Italian plant response rating ([6]; 31 g ai/ha): 50; Barnyardgrass plant response rating ([7]; 31 g ai/ha): 20; Blackgrass plant response rating ([8]; 31 g ai/ha): 0; Pigweed plant response rating ([9]; 31 g ai/ha): 0; Barnyardgrass plant response rating [10, 18]: 90; Kochia plant response rating (kochia (Kochia scoparia) [12]; [18]): 0; Ragweed plant response rating [13, 18]: 0; Foxtail, Giant plant response rating [14, 18]: 70; Ryegrass, Italian plant response rating [15, 18]: 0; Pigweed plant response rating [16, 18]: 0
